PubChem BioAssay AID248 (DTP/NCI, 2004)
Inconclusive results and toxic doses are left out. Rule as the data show it: active = T/C of 150% or more; inactive = T/C below 125%.

System: L1210 leukemia ip in BDF1 mice, survival T/C
Test: NCI In Vivo Anticancer Drug Screen. Data for tumor model L1210 Leukemia (intraperitoneal) in B6D2F1 (BDF1) mice
Conditions: endpoint: mean survival time, higher = longer survival
Outline: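 Mice bearing the transplanted tumor received compound or vehicle. Survival of the treated group was divided by that of the vehicle-treated control group to give the ratio.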

[1] = dose: 100.0 mg/kg/injection, schedule: Q01DX001 (ip), vehicle: saline
[2] = dose: 200.0 mg/kg/injection, schedule: Q01DX001 (ip), vehicle: saline
[3] = dose: 50.0 mg/kg/injection, schedule: Q01DX009 (ip), vehicle: Klucel (hydroxypropylcellulose) (HPC)
[4] = dose: 100.0 mg/kg/injection, schedule: Q01DX009 (ip), vehicle: Klucel (hydroxypropylcellulose) (HPC)
[5] = dose: 200.0 mg/kg/injection, schedule: Q01DX009 (ip), vehicle: Klucel (hydroxypropylcellulose) (HPC)
[6] = dose: 400.0 mg/kg/injection, schedule: Q01DX009 (ip), vehicle: Klucel (hydroxypropylcellulose) (HPC)
[7] = dose: 50.0 mg/kg/injection, schedule: Q01DX009 (ip), vehicle: saline with Tween-80
[8] = dose: 100.0 mg/kg/injection, schedule: Q01DX009 (ip), vehicle: saline with Tween-80
[9] = dose: 100.0 mg/kg/injection, schedule: Q01DX009 (ip), vehicle: saline
[10] = dose: 25.0 mg/kg/injection, schedule: Q01DX009 (ip), vehicle: saline
[11] = dose: 400.0 mg/kg/injection, schedule: Q01DX001 (ip), vehicle: saline

Measured: T/C

O=CNc1c(Cl)c(Cl)c2c(c1Cl)Cc1cc(Cl)ccc1-2
inactive: dose: 50.0 mg/kg/injection, schedule: Q01DX001 (ip), vehicle: carboxymethylcellulose (CMC) 94 % of control | dose: 50.0 mg/kg/injection, schedule: Q04DX003 (ip), vehicle: acetone 97 % of control | dose: 75.0 mg/kg/injection, schedule: Q01DX009 (ip), vehicle: saline with Tween-80 108 % of control | dose: 100.0 mg/kg/injection, schedule: Q01DX001 (ip), vehicle: carboxymethylcellulose (CMC) 91 % of control | [1] 91 % of control | dose: 100.0 mg/kg/injection, schedule: Q04DX003 (ip), vehicle: acetone 105 % of control | dose: 150.0 mg/kg/injection, schedule: Q01DX009 (ip), vehicle: saline with Tween-80 109 % of control | dose: 200.0 mg/kg/injection, schedule: Q01DX001 (ip), vehicle: carboxymethylcellulose (CMC) 102 % of control | [2] 91 % of control | dose: 200.0 mg/kg/injection, schedule: Q04DX003 (ip), vehicle: acetone 94 % of control

O=Cc1ccc(N2CCOCC2)cc1
inactive: [3] 97 % of control | [4] 97 % of control | [5] 106 % of control | [6] 97 % of control

CCOc1ccccc1NC(=O)Nc1ccccc1C(F)(F)F
inactive: [4] 94 % of control | [5] 96 % of control | [6] 91 % of control

c1ccc(-c2cc(-c3ccccc3)c(-c3ccccc3)c(-c3ccccc3)c2-c2ccccc2)cc1
inactive: [7] 87 % of control | [8] 93 % of control | dose: 200.0 mg/kg/injection, schedule: Q01DX009 (ip), vehicle: saline with Tween-80 93 % of control

N#CC(Nc1ccccc1C(N)=O)c1ccccc1 (stereo not given)
inactive: [9] 95 % of control | dose: 200.0 mg/kg/injection, schedule: Q01DX009 (ip), vehicle: saline 106 % of control | dose: 400.0 mg/kg/injection, schedule: Q01DX009 (ip), vehicle: saline 91 % of control

CC(C)P(=O)(OCc1ccccc1)C(C)C
inactive: [4] 97 % of control | [5] 94 % of control | [6] 89 % of control

CC(=O)n1c2c(n(C(C)=O)c1=O)CCCC2
inactive: dose: 100.0 mg/kg/injection, schedule: Q01DX001 (ip), vehicle: saline with Tween-80 102 % of control | dose: 200.0 mg/kg/injection, schedule: Q01DX001 (ip), vehicle: saline with Tween-80 98 % of control | dose: 400.0 mg/kg/injection, schedule: Q01DX001 (ip), vehicle: saline with Tween-80 102 % of control

O=C(CCl)c1ccc(O)c(O)c1
inactive: dose: 6.25 mg/kg/injection, schedule: Q01DX009 (ip), vehicle: saline 94 % of control | dose: 12.5 mg/kg/injection, schedule: Q01DX009 (ip), vehicle: saline 105 % of control | dose: 33.0 mg/kg/injection, schedule: Q01DX001 (ip), vehicle: other 105 % of control | dose: 50.0 mg/kg/injection, schedule: Q01DX001 (ip), vehicle: other 108 % of control | dose: 75.0 mg/kg/injection, schedule: Q01DX001 (ip), vehicle: other 109 % of control | dose: 112.0 mg/kg/injection, schedule: Q01DX001 (ip), vehicle: other 108 % of control

Fc1ccc(F)c(-c2c(F)ccc(F)c2F)c1F
inactive: dose: 25.6 mg/kg/injection, schedule: Q04DX002 (ip), vehicle: saline with Tween-80 100 % of control | dose: 64.0 mg/kg/injection, schedule: Q04DX002 (ip), vehicle: saline with Tween-80 113 % of control | dose: 160.0 mg/kg/injection, schedule: Q04DX002 (ip), vehicle: saline with Tween-80 95 % of control | dose: 400.0 mg/kg/injection, schedule: Q04DX002 (ip), vehicle: saline with Tween-80 103 % of control

NC(=O)c1cc(Cl)ccc1OC(=O)Nc1ccccc1F
inactive: [4] 115 % of control | [5] 102 % of control | [6] 98 % of control

NC(Cc1cnc(N=Nc2ccc(S(N)(=O)=O)cc2)[nH]1)C(=O)O (stereo not given)
inactive: [3] 100 % of control | [4] 93 % of control | [5] 93 % of control

COc1cc2ccc(CCNCc3ccccc3)cc2cc1OC
inactive: [10] 97 % of control | dose: 50.0 mg/kg/injection, schedule: Q01DX009 (ip), vehicle: saline 91 % of control | [9] 90 % of control | dose: 100.0 mg/kg/injection, schedule: Q04DX003 (ip), vehicle: saline 87 % of control

O=[N+]([O-])c1ccc(Oc2ccc(F)cc2)c([N+](=O)[O-])c1
inactive: dose: 50.0 mg/kg/injection, schedule: Q01DX001 (ip), vehicle: saline 103 % of control | [1] 103 % of control | [2] 97 % of control | [11] 105 % of control

O=C(O)C1=C(C(=O)O)C2C=CC1N2Cc1ccccc1
inactive: dose: 100.0 mg/kg/injection, schedule: Q01DX001 (ip), vehicle: other 96 % of control | dose: 200.0 mg/kg/injection, schedule: Q01DX001 (ip), vehicle: other 102 % of control

CCC(CN(C)C)C(=O)c1ccccc1 (stereo not given)
inactive: dose: 6.0 mg/kg/injection, schedule: Q01DX009 (ip), vehicle: saline 93 % of control | dose: 12.0 mg/kg/injection, schedule: Q01DX009 (ip), vehicle: saline 91 % of control | dose: 25.0 mg/kg/injection, schedule: Q01DX009 (ip), vehicle: saline with Tween-80 93 % of control | [10] 88 % of control | dose: 25.0 mg/kg/injection, schedule: Q04DX002 (ip), vehicle: saline with Tween-80 100 % of control | [7] 96 % of control | dose: 50.0 mg/kg/injection, schedule: Q04DX002 (ip), vehicle: saline with Tween-80 96 % of control | [8] 93 % of control | dose: 100.0 mg/kg/injection, schedule: Q04DX002 (ip), vehicle: saline with Tween-80 104 % of control

CN(C)S(=O)(=O)c1ccc(NC(=O)OC2CCCCCCC2)cc1
inactive: [1] 96 % of control | [2] 94 % of control | [11] 89 % of control

CCN(CC)C(=O)CS(=O)(=O)c1ccc(N)cc1
inactive: dose: 100.0 mg/kg/injection, schedule: Q04DX003 (ip), vehicle: saline with Tween-80 102 % of control | dose: 200.0 mg/kg/injection, schedule: Q04DX003 (ip), vehicle: saline with Tween-80 97 % of control | dose: 400.0 mg/kg/injection, schedule: Q04DX003 (ip), vehicle: saline with Tween-80 100 % of control
